# In patent US20130131075A1, “NEW COMPOUNDS” (Boehringer Ingelheim International GmbH, priority 2009, published 2013):
# Biological target: T1, cynomolgus BK1-receptor (Macaca fascicularis, UniProt Q3BCU0)
# T1 construct: expressed in transfected cells; host or cells: CHO cells (homogenate)
# T1 sequence (Q3BCU0 1-352): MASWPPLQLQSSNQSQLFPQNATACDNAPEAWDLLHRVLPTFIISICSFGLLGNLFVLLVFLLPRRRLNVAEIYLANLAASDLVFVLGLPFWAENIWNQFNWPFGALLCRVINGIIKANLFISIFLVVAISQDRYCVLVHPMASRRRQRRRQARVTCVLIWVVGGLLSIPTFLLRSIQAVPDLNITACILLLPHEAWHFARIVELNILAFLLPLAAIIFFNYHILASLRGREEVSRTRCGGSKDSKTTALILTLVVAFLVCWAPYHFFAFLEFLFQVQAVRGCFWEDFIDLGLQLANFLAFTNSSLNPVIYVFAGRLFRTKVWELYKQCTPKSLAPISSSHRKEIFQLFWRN
# Assay: cynoBK1-receptor binding assay
# Conditions: CHO cells expressing cynomolgus BK1-receptor, radioligand kallidine (DesArg10,Leu9); for inhibition at 10 µM: at 10 μgmol/L
# Method: Description of the Method of Binding the cynoBK1-Receptor
# CHO cells that express the cynomolgus BK1-receptor are cultivated in “HAM'S F-12 Medium”. The medium is removed from confluent cultures, the cells are washed with PBS buffer, scraped off or detached using Versene and isolated by centrifuging. Then the cells are homogenised in suspension, the homogenate is centrifuged and resuspended. After the protein content has been determined 200 μl of the homogenate (50 to 250 μg protein/assay) are incubated for 60-180 minutes at ambient temperature with 0.5 to 5.0 nM kallidine (DesArg10,Leu9), [3,4-Prolyl-3,43H(N)] and increasing concentrations of the test substance in a total volume of 250 μl. The incubation is stopped by rapid filtration through GF/B glass fibre filters that have been pre-treated with polyethyleneimine (0.3%). The radioactivity bound to the protein is measured with a TopCount NXT. The radioactivity bound in the presence of 1.0 μM kallidine (DesArg10) is defined as non-specific binding. The concentration binding curve may be analysed using computer-aided non-linear curve fitting to determine the corresponding Ki value for the test substance.
# Test results of the cynoBK1-receptor binding assay: […]
Ki,inhibition at 10 µM,Structure (SMILES)
98 nM,109%,O=C(N[C@@]1(C(=O)NCc2ccc(Nc3ccccc3C(F)(F)F)cc2)CCOC1)c1ccnnc1 [(64)]
30 nM,–,Cc1ncc(C(=O)N[C@@]2(C(=O)NCc3ccc(Nc4ccc(Cl)cc4C(F)(F)F)cc3)CCOC2)cn1 [(317)]
375 nM,82%,CC(C)Oc1ccc(Nc2ccc(CNC(=O)C3(NC(=O)c4cncnc4)CC3)cc2)c(C(F)(F)F)c1 [(119)]
–,99%,O=C(NC1(C(=O)NCc2ccc(Nc3ccccc3C(F)(F)F)cc2)CC1)c1cccnc1 [(11)]
57 nM,–,COc1cncc(C(=O)NC2(C(=O)NCc3ccc(Nc4ccc(Br)cc4C(F)(F)F)cn3)CC2)c1 [(316)]
43 nM,–,CNc1cncc(C(=O)N[C@@]2(C(=O)NCc3ncc(Nc4ccc(F)cc4C(F)(F)F)cc3F)CCOC2)c1 [(260)]
10 nM,–,Cc1cc(Nc2ccc(Cl)cc2C(F)(F)F)cnc1CNC(=O)C1(NC(=O)c2cncc(N)c2)CC1 [(361)]
1.2 nM,–,Cc1ncc(C(=O)NC2(C(=O)NCc3ccc(Nc4ccccc4C(F)(F)F)cc3F)CC2)cn1 [(294)]
7 nM,109%,O=C(NC1(C(=O)NCc2ccc(Nc3c(F)cccc3C(F)(F)F)cn2)CC1)c1cncnc1 [(44)]
93 nM,–,COc1cncc(C(=O)N[C@@]2(C(=O)NCc3ccc(Nc4ccc(F)cc4C(F)(F)F)cc3)CCOC2)c1 [(381)]
12 nM,108%,Nc1cncc(C(=O)NC2(C(=O)NCc3ncc(Nc4c(F)cccc4C(F)(F)F)cc3F)CC2)c1 [(125)]
8.4 nM,–,Nc1ccc(C(=O)NC2(C(=O)NCc3ccc(Nc4ccc(F)cc4C(F)(F)F)cn3)CC2)cn1 [(244)]
–,84%,COCC(=O)NC1(C(=O)NCc2ccc(Nc3ccccc3C(F)(F)F)cc2)CC1 [(14)]
6.5 nM,–,CCCNc1ncc(C(=O)NC2(C(=O)NCc3ccc(Nc4ccc(Cl)cc4C(F)(F)F)cn3)CC2)cn1 [(380)]
7.6 nM,107%,COc1ncc(C(=O)NC2(C(=O)NCc3ccc(Nc4ccc(Cl)cc4C(F)(F)F)cn3)CC2)cn1 [(146)]
101 nM,–,O=C(NC1(C(=O)NCc2ccc(Nc3ccc(Cl)cc3C(F)(F)F)cn2)CC1)C(F)(F)F [(362)]
> 500 nM,99%,N#Cc1c(F)cccc1Nc1ccc(CNC(=O)C2(NC(=O)c3cncnc3)CC2)cc1 [(115)]
4.6 nM,–,Nc1ncc(C(=O)NC2(C(=O)NCc3ccc(Nc4ccc(Cl)cc4C(F)(F)F)cn3)CC2)cc1Br [(378)]
281 nM,–,CN(C)c1ccc(C(=O)NC2(C(=O)NCc3ccc(Nc4ccc(Br)cc4C(F)(F)F)cn3)CC2)cn1 [(268)]
–,99%,O=C(NC1(C(=O)NCc2ccc(Nc3ccc(Br)cc3C(F)(F)F)cn2)CC1)c1ccnnc1 [(174)]
13 nM,–,Nc1cncc(C(=O)N[C@@]2(C(=O)NCc3ccc(Nc4ccc(F)cc4C(F)(F)F)cc3)CCOC2)c1 [(214)]

Ki,inhibition at 10 µM,Structure (SMILES)
288 nM,87%,CC(NC(=O)[C@]1(NC(=O)c2cncnc2)CCOC1)c1ccc(Nc2ccc(Cl)cc2C(F)(F)F)cn1 (stereo partly shown) [(163)]
132 nM,–,O=C(N[C@@]1(C(=O)NCc2ccc(Nc3ccccc3C(F)(F)F)cc2)CCOC1)c1cccc(O)c1 [(97)]
–,87%,Nc1cc(C(=O)NC2(C(=O)NCc3ccc(Nc4ccc(F)cc4C(F)(F)F)cn3)CC2)[nH]n1 [(185)]
25 nM,–,CNc1cncc(C(=O)NC2(C(=O)NCc3ccc(Nc4ccc(Cl)cc4C(F)(F)F)cn3)CC2)c1 [(280)]
> 500 nM,97%,O=C(N[C@@]1(C(=O)NCc2ccc(Nc3ccccc3C(F)(F)F)cc2)CCOC1)c1ccnc(Cl)c1 [(61)]
1.8 nM,107%,O=C(NC1(C(=O)NCc2ncc(Nc3ccc(F)cc3C(F)(F)F)cc2F)CC1)c1cncnc1 [(151)]
45 nM,–,O=C(CC(F)(F)F)NC1(C(=O)NCc2ccc(Nc3ccc(Cl)cc3C(F)(F)F)cn2)CC1 [(363)]
45 nM,–,CNc1ccc(C(=O)NC2(C(=O)NCc3ccc(Nc4ccc(F)cc4C(F)(F)F)cn3)CC2)cn1 [(377)]
12 nM,–,CNc1ccc(C(=O)NC2(C(=O)NCc3ccc(Nc4ccc(Cl)cc4C(F)(F)F)cn3)CC2)cn1 [(347)]
–,57%,O=C(N[C@@]1(C(=O)NCc2ccc(Nc3ccccc3C(F)(F)F)cc2)CCOC1)c1ccco1 [(94)]
–,56%,O=C(NC1(C(=O)NCc2ccc(Nc3ccccc3C(F)(F)F)cn2)CCCCC1)c1cncnc1 [(191)]
84 nM,103%,O=C(NC1(C(=O)NCc2ncc(Nc3c(F)cccc3C(F)(F)F)cc2F)CC1)c1ccnnc1 [(128)]
–,69%,O=C(N[C@@]1(C(=O)NCc2ccc(Nc3ccccc3C(F)(F)F)cc2)CCOC1)c1cc[nH]n1 [(106)]
–,113%,COc1ncc(C(=O)N[C@@]2(C(=O)NCc3ccc(Nc4ccccc4C(F)(F)F)cc3)CCOC2)cn1 [(81)]
489 nM,–,COc1ccc(C(=O)NC2(C(=O)NCc3ccc(Nc4ccc(Br)cc4C(F)(F)F)cn3)CC2)cn1 [(235)]
–,89%,O=C(NC1(C(=O)NCc2ccc(Nc3cc(F)ccc3C(F)(F)F)cn2)CC1)c1cncnc1 [(42)]
10 nM,–,Cc1ncc(C(=O)N[C@@]2(C(=O)NCc3ncc(Nc4ccc(Cl)cc4C(F)(F)F)cc3F)CCOC2)cn1 [(277)]
–,75%,Cn1cnc(C(=O)NC2(C(=O)NCc3ccc(Nc4ccccc4C(F)(F)F)cc3)CC2)c1 [(17)]
–,59%,CN(C)CCCC(=O)NC1(C(=O)NCc2ccc(Nc3ccccc3C(F)(F)F)cc2)CC1 [(6)]
–,96%,O=C(CC1CC1)NC1(C(=O)NCc2ccc(Nc3ccccc3C(F)(F)F)cc2)CC1 [(19)]
3.2 nM,105%,Nc1cncc(C(=O)NC2(C(=O)NCc3ncc(Nc4ccc(F)cc4C(F)(F)F)cc3F)CC2)c1 [(152)]

Ki,inhibition at 10 µM,Structure (SMILES)
135 nM,–,CNc1ncc(C(=O)N[C@@]2(C(=O)NCc3ccc(Nc4ccc(F)cc4C(F)(F)F)cn3)CCOC2)cn1 [(304)]
66 nM,–,O=C(N[C@@]1(C(=O)NCc2ncc(Nc3ccc(Cl)cc3C(F)(F)F)cc2F)CCOC1)c1cncc(O)c1 [(331)]
–,100%,O=C(NC1(C(=O)NCc2ncc(Nc3ccc(F)cc3C(F)(F)F)cc2Cl)CC1)c1cncnc1 [(187)]
75 nM,–,O=C(N[C@@]1(C(=O)NCc2ccc(Nc3ccc(Br)cc3C(F)(F)F)cn2)CCOC1)c1cncnc1 [(223)]
135 nM,101%,CCNC(=O)NC1(C(=O)NCc2ccc(Nc3ccccc3C(F)(F)F)cc2)CC1 [(108)]
402 nM,–,CC(C)c1ccc(Nc2ccc(CNC(=O)C3(NC(=O)c4cncnc4)CC3)nc2)c(C(F)(F)F)c1 [(204)]
2.8 nM,111%,CCOc1ccc(Nc2ccc(CNC(=O)C3(NC(=O)c4cncnc4)CC3)cc2)c(C(F)(F)F)c1 [(117)]
292 nM,104%,COc1cc(C(=O)N[C@@]2(C(=O)NCc3ccc(Nc4ccccc4C(F)(F)F)cc3)CCOC2)ccn1 [(79)]
–,76%,O=C(N[C@@]1(C(=O)NCc2ccc(Nc3ccccc3C(F)(F)F)cc2)CCOC1)C1CCOCC1 [(65)]
222 nM,–,O=C(N[C@@]1(C(=O)NCc2ccc(Nc3ccc(F)cc3C(F)(F)F)cc2)CCOC1)c1cncs1 [(299)]
–,78%,COc1ccc(C(=O)N[C@@]2(C(=O)NCc3ccc(Nc4ccccc4C(F)(F)F)cc3)CCOC2)o1 [(68)]
90 nM,104%,Cn1ccc(C(=O)N[C@@]2(C(=O)NCc3ccc(Nc4ccccc4C(F)(F)F)cc3)CCOC2)cc1=O [(84)]
49 nM,–,O=C(NC1(C(=O)NCc2ccc(Nc3ccc(F)cc3C(F)(F)F)cn2)CC1)c1ccc(Cl)nc1 [(253)]
–,99%,Nc1ncc(C(=O)NC2(C(=O)NCc3ccc(Nc4ccc(F)cc4C(F)(F)F)cn3)CC2)s1 [(184)]
–,88%,O=C1CCC(C(=O)NC2(C(=O)NCc3ccc(Nc4ccccc4C(F)(F)F)cc3)CC2)N1 (stereo not shown) [(5)]
–,81%,N#C/C(=N\O)C(=O)N[C@@]1(C(=O)NCc2ccc(Nc3ccccc3C(F)(F)F)cc2)CCOC1 [(66)]
5.5 nM,–,Cc1ncc(C(=O)N[C@@]2(C(=O)NCc3ncc(Nc4ccc(F)cc4C(F)(F)F)cc3F)CCOC2)cn1 [(267)]
2 nM,104%,CC(NC(=O)C1(NC(=O)c2cncnc2)CC1)c1ccc(Nc2ccc(F)cc2C(F)(F)F)cn1 (stereo not shown) [(45)]
33 nM,–,Cc1ncc(C(=O)N[C@@]2(C(=O)NCc3ncc(Nc4ccccc4C(F)(F)F)cc3C)CCOC2)cn1 [(366)]
–,84%,O=C(N[C@@]1(C(=O)NCc2ccc(Nc3ccccc3C(F)(F)F)cc2)CCOC1)c1ccoc1 [(93)]
6.8 nM,–,O=C(NC1(C(=O)NCc2ccc(Nc3ccc(Cl)cc3C(F)(F)F)cn2)CC1)c1cc(O)nc(O)n1 [(208)]
